Reference: the supplement of paper PMC5662764
± gives the standard deviation of the averaged measurements.

What was measured:
Assay in all cases: normalised growth rate inhibition (GR value) relative to DMSO control (GR (1 = untreated growth, 0 = cytostasis, <0 = cytotoxic)); higher = less growth inhibition
Conditions in all cases: 72 h
MCF7 = tested on: MCF7
Protocol: (§1)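 Breast cancer cell lines (BT-20, Hs 578T, MCF 10A, MCF7, MDA-MB-231, SK-BR-3) were plated in 384-well plates and treated 24 h later with drugs at six concentrations (0.04-10 µM). Viable cells were counted by Hoechst/dead-cell-stain imaging at 0 and 72 h. Counts were normalised to DMSO controls on the same plate to give the relative cell count and the growth-rate inhibition (GR) value; technical plate triplicates were averaged for each biological replicate.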

HS578T = tested on: HS578T
Protocol: as §1

BT20 = tested on: BT20
Protocol: as §1

MDAMB231 = tested on: MDAMB231
Protocol: as §1

SKBR3 = tested on: SKBR3
Protocol: as §1

MCF10A = tested on: MCF10A
Protocol: as §1

Row | Structure (SMILES) | normalised growth rate inhibition (MCF7; 0.04 µM) | normalised growth rate inhibition (MCF7; 0.12 µM) | normalised growth rate inhibition (MCF7; 0.37 µM) | normalised growth rate inhibition (MCF7; 1.11 µM) | normalised growth rate inhibition (MCF7; 3.33 µM) | normalised growth rate inhibition (MCF7; 10 µM) | normalised growth rate inhibition (HS578T; 0.04 µM) | normalised growth rate inhibition (HS578T; 0.12 µM) | normalised growth rate inhibition (HS578T; 0.37 µM) | normalised growth rate inhibition (HS578T; 1.11 µM) | normalised growth rate inhibition (HS578T; 3.33 µM) | normalised growth rate inhibition (HS578T; 10 µM) | normalised growth rate inhibition (BT20; 0.04 µM) | normalised growth rate inhibition (BT20; 0.12 µM) | normalised growth rate inhibition (BT20; 0.37 µM) | normalised growth rate inhibition (BT20; 1.11 µM) | normalised growth rate inhibition (BT20; 3.33 µM) | normalised growth rate inhibition (BT20; 10 µM) | normalised growth rate inhibition (MDAMB231; 0.04 µM) | normalised growth rate inhibition (MDAMB231; 0.12 µM) | normalised growth rate inhibition (MDAMB231; 0.37 µM) | normalised growth rate inhibition (MDAMB231; 1.11 µM) | normalised growth rate inhibition (MDAMB231; 3.33 µM) | normalised growth rate inhibition (MDAMB231; 10 µM) | normalised growth rate inhibition (SKBR3; 0.04 µM) | normalised growth rate inhibition (SKBR3; 0.12 µM) | normalised growth rate inhibition (SKBR3; 0.37 µM) | normalised growth rate inhibition (SKBR3; 1.11 µM) | normalised growth rate inhibition (SKBR3; 3.33 µM) | normalised growth rate inhibition (SKBR3; 10 µM) | normalised growth rate inhibition (MCF10A; 0.04 µM) | normalised growth rate inhibition (MCF10A; 0.12 µM) | normalised growth rate inhibition (MCF10A; 0.37 µM) | normalised growth rate inhibition (MCF10A; 1.11 µM) | normalised growth rate inhibition (MCF10A; 3.33 µM) | normalised growth rate inhibition (MCF10A; 10 µM)
1 | C=CC(=O)Nc1cccc(Nc2nc(NC3CCC(N(C)C)CC3)nc3c2ncn3C(C)C)c1 (centres undefined) [WZ-3105] | -0.317 ± 0.065 | -0.303 ± 0.097 | -0.28 ± 0.11 | -0.254 ± 0.091 | -0.27 ± 0.062 | -0.296 ± 0.05 | -0.121 ± 0.089 | -0.138 ± 0.075 | -0.127 ± 0.097 | -0.135 ± 0.11 | -0.147 ± 0.1 | -0.143 ± 0.14 | 0.223 ± 0.13 | 0.0547 ± 0.14 | -0.0538 ± 0.17 | -0.207 ± 0.19 | -0.253 ± 0.18 | -0.328 ± 0.19 | -0.23 ± 0.13 | -0.232 ± 0.15 | -0.235 ± 0.16 | -0.237 ± 0.16 | -0.232 ± 0.12 | -0.132 ± 0.12 | -0.298 ± 0.15 | -0.287 ± 0.18 | -0.269 ± 0.18 | -0.273 ± 0.18 | -0.266 ± 0.15 | -0.227 ± 0.19 | 0.523 ± 0.12 | 0.188 ± 0.13 | -0.101 ± 0.14 | -0.224 ± 0.24 | -0.245 ± 0.25 | -0.269 ± 0.24
2 | COc1cc(C(=O)N2CCC(N3CCN(C)CC3)CC2)ccc1Nc1ncc2c(n1)N(C)c1ccccc1C(=O)N2C [XMD-1150] | 0.852 ± 0.021 | 0.784 ± 0.014 | 0.599 ± 0.018 | 0.365 ± 0.034 | 0.201 ± 0.012 | 0.0333 ± 0.0087 | 0.964 ± 0.035 | 0.913 ± 0.051 | 0.815 ± 0.034 | 0.66 ± 0.0096 | 0.411 ± 0.039 | -0.053 ± 0.089 | 0.885 ± 0.11 | 0.85 ± 0.16 | 0.803 ± 0.16 | 0.722 ± 0.17 | 0.551 ± 0.12 | 0.238 ± 0.15 | 0.891 ± 0.054 | 0.818 ± 0.088 | 0.567 ± 0.12 | 0.353 ± 0.077 | 0.189 ± 0.029 | 0.0699 ± 0.13 | 0.677 ± 0.17 | 0.669 ± 0.12 | 0.609 ± 0.12 | 0.514 ± 0.16 | 0.348 ± 0.18 | 0.0641 ± 0.18 | 0.973 ± 0.013 | 0.937 ± 0.021 | 0.841 ± 0.036 | 0.665 ± 0.078 | 0.384 ± 0.12 | 0.123 ± 0.052
3 | FC(F)c1nc2ccccc2n1-c1nc(N2CCOCC2)nc(N2CCOCC2)n1 [ZSTK-474] | 0.664 ± 0.2 | 0.37 ± 0.18 | 0.138 ± 0.048 | 0.0423 ± 0.065 | 0.00162 ± 0.071 | -0.0168 ± 0.11 | 0.806 ± 0.017 | 0.663 ± 0.032 | 0.522 ± 0.088 | 0.394 ± 0.12 | 0.289 ± 0.1 | 0.148 ± 0.11 | 0.971 ± 0.029 | 0.855 ± 0.16 | 0.615 ± 0.27 | 0.211 ± 0.17 | 0.0764 ± 0.14 | -0.0662 ± 0.025 | 0.881 ± 0.062 | 0.828 ± 0.055 | 0.728 ± 0.025 | 0.646 ± 0.061 | 0.511 ± 0.077 | 0.386 ± 0.11 | 0.783 ± 0.087 | 0.46 ± 0.06 | 0.161 ± 0.1 | 0.0252 ± 0.12 | -0.0251 ± 0.15 | -0.031 ± 0.13 | 0.954 ± 0.065 | 0.842 ± 0.12 | 0.698 ± 0.16 | 0.472 ± 0.083 | 0.296 ± 0.049 | 0.179 ± 0.069
4 | CN(C)C/C=C/C(=O)Nc1cc2c(Nc3ccc(F)c(Cl)c3)ncnc2cc1O[C@H]1CCOC1 [afatinib] | 0.784 ± 0.14 | 0.81 ± 0.15 | 0.865 ± 0.079 | 0.736 ± 0.11 | 0.603 ± 0.15 | -0.239 ± 0.083 | 0.9498 ± 0.0056 | 0.944 ± 0.032 | 0.944 ± 0.021 | 0.899 ± 0.025 | 0.852 ± 0.059 | -0.152 ± 0.04 | 0.704 ± 0.031 | 0.789 ± 0.017 | 0.814 ± 0.027 | 0.868 ± 0.059 | 0.855 ± 0.035 | 0.0471 ± 0.25 | 0.845 ± 0.14 | 0.873 ± 0.047 | 0.755 ± 0.041 | 0.641 ± 0.09 | 0.537 ± 0.043 | -0.205 ± 0.11 | -0.137 ± 0.2 | -0.13 ± 0.17 | -0.117 ± 0.16 | -0.0678 ± 0.2 | -0.0514 ± 0.15 | -0.171 ± 0.11 | 0.034 ± 0.14 | 0.0299 ± 0.097 | 0.034 ± 0.07 | 0.0532 ± 0.05 | 0.058 ± 0.067 | 0.0354 ± 0.032
